Results as given in patent publication US20250109381A1, “COMPOSITION FOR CULTRING NK CELLS, COMPRISING ALLOFERON, AND METHOD FOR CULTURING NK CELLS USING SAME” (NK MEDICS INC., priority 2022, published 2025).

Assays:
[1] = test system: NK cells; assay: NK cell increase rate by flow cytometry (FACS, CD3-FITC/CD56-PE); type: cell-based, human; conditions: for NK (share of cells by FACS), Table 3 / NKT (share of cells by FACS), Table 3: 10 mg/L in NK cell culture medium of Example 1, 21 days
Experimental: Flow Cytometry (FACS analysis) analysis was performed to confirm the NK cell increase rate. Specifically, NK cells were cultured for 21 days in a medium containing 10 mg/L each of Test Example 1, Example 1 (untreated), and Alloferon 1 to 4 in Example 1. Cells before and after culture were collected by centrifugation at 1,400 rpm for 5minutes, and the collected cells were washed twice using PBS. Then, the cells were suspended in 1 ml of PBS, and the number of living cells was measured through Trypan blue staining. The cells were dispensed into FACS tubes at 1×10^6 cells/tube, and 2 ml of PBS was added. Then, centrifugation was performed at 400 g and 4° C. for 5 minutes, and the supernatant excluding cells was removed. 100 μl of 1% albumin was added to the remaining cell pellet, and antibodies were added and mixed with PBS. NK cells were treated with antibodies (CD3-FITC, CD56-PE), reacted in a light shielding state for 30 minutes, and then the cells were washed twice with PBS. NK cells were suspended in an appropriate amount of PBS, and then the data were compared and analyzed using FACSVerse (BD Biosciences, San Diego, CA, USA).

[2] = test system: NK cells; assay: NK cell activation receptor (NKp30, NKp44, NKp46) and perforin expression by FACS; type: cell-based, human; conditions: for NKp30 expression / NKp44 expression / NKp46 expression / Perforin expression: NK cells proliferated 21 days, 10 mg/L in NK medium
Experimental: Based on the results of Test Example 3, receptor expression was confirmed and compared to measure the activity of NK cells. Specifically, as in Test Example 3, NK cells were cultured in each medium, and in order to measure the activity of NK cells proliferated for 21 days, the proliferated NK cells were isolated by flow cytometry. The expression of activating markers for these cells was further confirmed. The cultured NK cells were washed twice using PBS, then dispensed into a FACS tube at 1×10^6 cells/tube, and 2 ml of PBS was added. Then, centrifugation was performed at 400 g and 4° C. for 5 minutes, and the supernatant excluding cells was removed. 100 μl of 1% albumin was added to the remaining cell pellet, sorted using antibodies (CD3-FITC, CD56-PE) together with PBS, and then isolated according to surface markers. In addition to the isolated cells, NK cells were treated with antibodies (Anti-NKp30, anti-NKp44, anti NKp46, and Perforin) to confirm the expression of activating receptors (NKp30, NKp44, NKp46) and Perforin on the surface of NK cells, and reacted in a light shielding state for 30 minutes, and the cells were washed twice again using PBS. NK cells were suspended in an appropriate amount of PBS, and the data were compared and analyzed using FACS AriaII (BD Biosciences, San Diego, CA, USA).

[3] = test system: NK cells; assay: IFN-gamma secretion of NK cells (Human IFN-y ELISA); type: cell-based; conditions: with IL-2 10 mg/L in typical medium, 48 hours; for IFN-r, Table 6: alloferon 100 mg/L
Experimental: IFN-r is an indicator of the activity of NK cells, and it is considered as the secretion amount is higher, the cytotoxicity is higher and the differentiation ability increases.
IFN-y secreted from NK cells was measured in the culture medium in which the cells were cultured, using a Human IFN-y ELISA kit (BD Biosciences, San Diego, CA, USA). 100 μl of capture antibody diluted in coating buffer was added to each well of a 96-well plate for ELISA, then sealed and left overnight at 4° C. It was washed three times using wash buffer, and all remaining buffer was removed. 200 μl of assay diluent was added to each well and reacted at room temperature for 1 hour for blocking. It was washed again three times using wash buffer, and all remaining buffer was removed. 100 μl of each prepared IFN-y standard and culture supernatants were added, the plate was sealed, and the reaction was performed at room temperature for 2 hours. It was washed 5 times using wash buffer, and all remaining buffer was removed. 100 μl of Working detector (Detection Antibody+SAv-HRP reagent) was added to each well, the plate was sealed, and reaction was performed at room temperature for 1 hour. It was washed 7 times using wash buffer, and all remaining buffer was removed. 100 μl of Substrate solution was added to each well and the reaction was performed at room temperature while shielding light for 30 minutes. 50 μl of Stop solution was added to each well, and the absorbance was measured at 450 nm within 30 minutes.

[4] = test system: NK cells; assay: Cell proliferation assay (incorporation of [3H]-thymidine), NK cell culture with added alloferon; type: cell-based, human; conditions: 0.1 to 100 mg/L tested, cultured 21 days, FIG. 3
Experimental: 30 ml of blood was collected from a human blood donor, RosetteSep NK enrichment antibody cocktail (50 ul/ml) was added thereto, and then diluted 1:1 v/v with phosphate buffer solution (PBS). The blood was centrifuged at 1600 rpm for 20 minutes using a density gradient centrifugation (Ficoll-Plaque) to separate the cell layer containing NK cells. The process of washing and centrifuging this with PBS was repeated twice. Then, the number of cells was counted by staining with trypan blue, and the average number of cells obtained was 1.6˜3.0×10^5 cell/ml, and the cells were cultured in NK cell culture medium.
The NK cell culture medium used was a combination of various substances that were conventionally known to be necessary for NK culture. […] This was used as the NK cell culture medium of Example 1, to which alloferon was further mixed and used at 0.1 to 100 mg/L as needed. […]
Specifically, NK cells (1×10^5 cells/ml) were placed in 96-well plates, and then treated with 10 mg/L each of alloferons 1 to 4 in the NK cell culture medium of Example 1, and then cultured in an environment at 5% CO2, 37° C. for 48 hours or 21 days. […] After that, the radioactivity was measured using 1450 MicroBeta TriLux (PerkinElmer Life and Analytical Sciences).

[5] = test system: NK cells; assay: Co-treatment of alloferon and other interleukins, NK cell proliferation; type: cell-based, human; conditions: only alloferon 1 added at 10 mg/L, 21 days, FIG. 4
Experimental: Specifically, NK cells (1×10^5 cells/ml) were placed in 96-well plates, and then treated with 10 mg/L each of alloferons 1 to 4 in the NK cell culture medium of Example 1, and then cultured in an environment at 5% CO2, 37° C. for 48 hours or 21 days. After the culture, [^3H]-thymidine (37 mBq) was added at 0.2 μCi per well and cultured for 8 hours. Both cells and medium were transferred to a glass fiber filter (size 90.120 mm; Wallac, Turkr, Finland) using a 96-well harvester. After drying the filter, a scintillator sheet (Meltilex, Wallac) was melted to coat the filter. After that, the radioactivity was measured using 1450 MicroBeta TriLux (PerkinElmer Life and Analytical Sciences).
In order to identify factors that imparts the influence other than alloferon during NK cell culture, the NK cell proliferation effect was confirmed after co-treatment with various combinations of interleukins. Except for the medium composition, the NK cell culture method was the same as in Test Example 1, and the cells were cultured for 21 days (*** random period).

[6] = after culture (day 21), 10 mg/L in NK cell culture medium of Example 1

Sequence	NK (share of cells by FACS), Table 3 [1] [%]	NKT (share of cells by FACS), Table 3 [1] [%]	NKp30 expression [2] [%]	NKp44 expression [2] [%]	NKp46 expression [2] [%]	Perforin expression [2] [%]	IFN-r, Table 6 [3] [µg/L]	also measured
GVSGHGQHGVHG (engineered from known peptides) [Alloferon 2]	73.8	12.4	53.2	50.9	78.6	99.9	4.87	
HGVSGHGQHGVHG (engineered from known peptides) [Alloferon 1]	74.7	6.5	57.4	60.3	88.4	99.8	6.32	concentration at which the maximum amount of NK cells was reached [4]: 10 mg/L; increase in number of NK cells compared to typical medium (RPMI) ([1]; 10 mg/L, day 0 to day 21): 1,430 times; increase of NK cells ([1]; 10 mg/L, day 0 to day 21): 8,790 fold; increase of NKT cells ([1]; 10 mg/L, day 0 to day 21): 560 fold; NK (share of cells by FACS) [1, 6]: 74.7%; NKT (share of cells by FACS) [1, 6]: 6.5%; NK (share of cells by FACS) ([1]; before culture (day 0)): 12.2%; NKT (share of cells by FACS) ([1]; before culture (day 0)): 1.7%; NK cell proliferation [5]: NK cell proliferation was induced; NK activity versus typical medium or NK cell culture medium of Example 1 ([2]; 21 days culture, FIG. 6 / Table 4): higher NK activity; IFN-r ([3]; alloferon 1 0.1 mg/L): 0.13 µg/L; IFN-r ([3]; alloferon 1 5 mg/L): 1.82 µg/L; IFN-r ([3]; alloferon 1 10 mg/L): 2.33 µg/L; IFN-r ([3]; alloferon 1 50 mg/L): 4.86 µg/L; IFN-r ([3]; alloferon 1 100 mg/L): 6.32 µg/L
SGHGQHGV (engineered from known peptides) [Alloferon 3]	69.7	13.2	47.8	51.3	69.1	90.4	3.31	
VSGHGQHGVH (engineered from known peptides) [Alloferon 4]	71.5	8.4	61.1	68.2	82.5	99.8	5.84	
